Assay results as given in publication PMC4298654, “In vivo formation of N-acyl-fumonisin B1” (Mycotoxin Research, 2014).

Test: In vivo formation of NAFB1 and NAHFB1 in rat kidney and liver (HPLC-ESI-MS/MS)
Set-up: N-acyl-derivative in tissue sample, analysis a / N-acyl-derivative in tissue sample, analysis b / N-acyl-derivative in tissue sample, mean: unit not given here
Settings: 5 days
From the text: The study protocol was approved by the Institutional Animal Care and Use Committee, Richard B. Russell Agricultural Research Center, Athens, GA. Male Sprague–Dawley rats (Harlan Industries, Indianapolis, IN, USA), 7 weeks of age at receipt, were individually housed in stainless steel, wire mesh cages in an environmentally controlled room having a 12-h light/dark cycle. Food (2019 Global Rodent Diet, Teklad, Madison, WI, USA) and fresh tap water were provided ad libitum. After a 1 week acclimation period, the animals were randomly assigned to five groups (n = 2/group) having mean weights of 215 to 216 g (weight range of all animals, 211 to 220 g). For five consecutive days, they were observed, weighed, and given an intraperitoneal injection (ip) of 0 (vehicle), 0.5, 1.0, or 2.0 mg/kg body weight FB1 (provided by R. Eppley, US FDA), 1.0 mg/kg body weight HFB1 (positive control) (Voss et al. [2009]), or vehicle (0.9 % physiological saline). These doses corresponded to 0.69, 1.38, and 2.77 μmol FB1/kg body weight and 2.47 μmol/kg body weight HFB1 per day. In order to compare the effects of FB1 and HFB1, dosages will be expressed as molar concentrations and, on this basis, the high dose of FB1 is roughly equivalent to that of the positive control dose of HFB1. Dosing solutions were sterile filtered and administered at a volume rate of 10 ml/kg body weight. The animals were fasted overnight prior to administration of the final dose. The rats were euthanized (CO2 inhalation and exsanguination) 60 to 90 min following the final dose administration and examined by necropsy. The kidney and liver specimens were fixed in 10 % neutral buffered formalin, processed, and microscopically evaluated without knowledge of the animal’s identity or treatment group. Three representative liver and kidney specimens (100 mg each) were also collected, immediately frozen, and stored (−80 °C) until processed, at which time the tissues were thawed and homogenized in distilled/deionized water (1 ml water/100 mg tissue). The homogenates were lyophilized before they were shipped by overnight courier for the analysis of fumonisin metabolites and sphingolipids.
Lyophilized liver and kidney tissues (100 mg wet weight equivalents) were processed for the quantification of FB1, HFB1, NAFB1, NAHFB1, and sphingolipids. Preparation of the tissue samples was performed according to a previously published method (Harrer et al. [2013]). For the quantification of FB1 and HFB1, a d6-labeled derivative of FB1 (FB1-d6) was used as the internal standard. Synthetic derivatives with a heptadecanoic fatty acid (C17:0) residue were used as internal standards for the quantification of N-acyl-fumonisins and ceramides (N-C17:0-FB1, N-C17:0-HFB1, and N-C17:0-ceramide). The sphingoid bases and their phosphate derivatives were quantified using synthetic derivatives with a C17-acyl-backbone: sphingosine (C17:1), sphingosine-1-phosphate (C17:1), sphinganine (C17:0), sphinganine-1-phosphate (C17:0) as internal standards. The standards were dissolved in methanol:chloroform (2:1, v/v) and then mixed with the tissue samples. The samples spiked with internal standard were kept at room temperature for 30 min before being processed further. The internal standard-spiked samples were first extracted with ethyl acetate, isopropanol, and water (60:30:10, v/v/v) and a second time using methanol, chloroform, and water (60:30:10, v/v/v). The extracts were combined, the solvents removed by evaporation, and the dried samples stored at−80 °C till analyzed.
For the analysis, the samples were reconstituted in a mixture of water, methanol, and tetrahydrofurane (60:24:16, v/v/v). The NAFB1 and NAHFB1 derivatives having the following fatty acyl chain lengths were quantified by HPLC-MS/MS: C16:0, C18:0, C20:0, C22:0, C24:0, C26:0. Furthermore, we also quantified the unsaturated derivatives C24:1 and C26:1. The results are given as the sum of all N-acyl derivatives of FB1 or HFB1. […]

[1] = Kidney, treatment FB1 0,5 mg/kg BW ip
[2] = Kidney, treatment FB1 1 mg/kg BW ip
[3] = Kidney, treatment FB1 2 mg/kg BW ip
[4] = Kidney, treatment HFB1 1 mg/kg BW ip
[5] = Liver, treatment FB1 0,5 mg/kg BW ip
[6] = Liver, treatment FB1 1 mg/kg BW ip
[7] = Liver, treatment FB1 2 mg/kg BW ip
[8] = Liver, treatment HFB1 1 mg/kg BW ip

SMILES: CCCCCCCCCCCCCCCC(=O)NC(C)C(O)CC(O)CCCCC(O)CC(C)CC(OC(=O)CC(CC(=O)O)C(=O)O)C(OC(=O)CC(CC(=O)O)C(=O)O)C(C)CCCC (stereo not shown) [FB1C16:0]
- N-acyl-derivative in tissue sample, analysis a [1]: 7,4
- N-acyl-derivative in tissue sample, analysis b [1]: 9,1
- N-acyl-derivative in tissue sample, mean [1]: 8,2
- N-acyl-derivative in tissue sample, analysis a [2]: 14,4
- N-acyl-derivative in tissue sample, analysis b [2]: 12,6
- N-acyl-derivative in tissue sample, mean [2]: 13,5
- N-acyl-derivative in tissue sample, analysis a [3]: 12,1
- N-acyl-derivative in tissue sample, analysis b [3]: 13,8
- N-acyl-derivative in tissue sample, mean [3]: 13,0
- N-acyl-derivative in tissue sample, analysis a [4]: 0,0
- N-acyl-derivative in tissue sample, analysis b [4]: 0,0
- N-acyl-derivative in tissue sample, mean [4]: 0,0
- N-acyl-derivative in tissue sample, analysis a [5]: 6,8
- N-acyl-derivative in tissue sample, analysis b [5]: 5,1
- N-acyl-derivative in tissue sample, mean [5]: 6,0
- N-acyl-derivative in tissue sample, analysis a [6]: 3,9
- N-acyl-derivative in tissue sample, analysis b [6]: 6,4
- N-acyl-derivative in tissue sample, mean [6]: 5,2
- N-acyl-derivative in tissue sample, analysis a [7]: 8,4
- N-acyl-derivative in tissue sample, analysis b [7]: 5,9
- N-acyl-derivative in tissue sample, mean [7]: 7,1
- N-acyl-derivative in tissue sample, analysis a [8]: 0,0
- N-acyl-derivative in tissue sample, analysis b [8]: 0,0
- N-acyl-derivative in tissue sample, mean [8]: 0,0

SMILES: CCCCCCCCCCCCCCCCCC(=O)NC(C)C(O)CC(O)CCCCC(O)CC(C)CC(OC(=O)CC(CC(=O)O)C(=O)O)C(OC(=O)CC(CC(=O)O)C(=O)O)C(C)CCCC (stereo not shown) [FB1C18:0]
- N-acyl-derivative in tissue sample, analysis a [1]: 2,5
- N-acyl-derivative in tissue sample, analysis b [1]: 2,9
- N-acyl-derivative in tissue sample, mean [1]: 2,7
- N-acyl-derivative in tissue sample, analysis a [2]: 3,8
- N-acyl-derivative in tissue sample, analysis b [2]: 3,1
- N-acyl-derivative in tissue sample, mean [2]: 3,4
- N-acyl-derivative in tissue sample, analysis a [3]: 4,0
- N-acyl-derivative in tissue sample, analysis b [3]: 2,8
- N-acyl-derivative in tissue sample, mean [3]: 3,4
- N-acyl-derivative in tissue sample, analysis a [4]: 0,0
- N-acyl-derivative in tissue sample, analysis b [4]: 0,0
- N-acyl-derivative in tissue sample, analysis a [5]: 3,1
- N-acyl-derivative in tissue sample, analysis b [5]: 2,4
- N-acyl-derivative in tissue sample, mean [5]: 2,8
- N-acyl-derivative in tissue sample, analysis a [6]: 2,0
- N-acyl-derivative in tissue sample, analysis b [6]: 3,0
- N-acyl-derivative in tissue sample, mean [6]: 2,5
- N-acyl-derivative in tissue sample, analysis a [7]: 3,0
- N-acyl-derivative in tissue sample, analysis b [7]: 3,9
- N-acyl-derivative in tissue sample, mean [7]: 3,5
- N-acyl-derivative in tissue sample, analysis a [8]: 0,0
- N-acyl-derivative in tissue sample, analysis b [8]: 0,0

SMILES: CCCCCCCCCCCCCCCCCCCC(=O)NC(C)C(O)CC(O)CCCCC(O)CC(C)CC(OC(=O)CC(CC(=O)O)C(=O)O)C(OC(=O)CC(CC(=O)O)C(=O)O)C(C)CCCC (stereo not shown) [FB1C20:0]
- N-acyl-derivative in tissue sample, analysis a [1]: 0,2
- N-acyl-derivative in tissue sample, analysis b [1]: 0,5
- N-acyl-derivative in tissue sample, mean [1]: 0,4
- N-acyl-derivative in tissue sample, analysis a [2]: 0,2
- N-acyl-derivative in tissue sample, analysis b [2]: 0,0
- N-acyl-derivative in tissue sample, mean [2]: 0,1
- N-acyl-derivative in tissue sample, analysis a [3]: 0,0
- N-acyl-derivative in tissue sample, analysis b [3]: 0,6
- N-acyl-derivative in tissue sample, mean [3]: 0,3
- N-acyl-derivative in tissue sample, analysis a [4]: 0,0
- N-acyl-derivative in tissue sample, analysis b [4]: 0,0
- N-acyl-derivative in tissue sample, mean [4]: 0,0
- N-acyl-derivative in tissue sample, analysis a [5]: 0,0
- N-acyl-derivative in tissue sample, analysis b [5]: 0,0
- N-acyl-derivative in tissue sample, mean [5]: 0,0
- N-acyl-derivative in tissue sample, analysis a [6]: 0,0
- N-acyl-derivative in tissue sample, analysis b [6]: 0,0
- N-acyl-derivative in tissue sample, mean [6]: 0,0
- N-acyl-derivative in tissue sample, analysis a [7]: 0,0
- N-acyl-derivative in tissue sample, analysis b [7]: 0,0
- N-acyl-derivative in tissue sample, mean [7]: 0,0
- N-acyl-derivative in tissue sample, analysis a [8]: 0,0
- N-acyl-derivative in tissue sample, analysis b [8]: 0,0
- N-acyl-derivative in tissue sample, mean [8]: 0,0
